Test results reported in patent publication US20170197935A1, “INHIBITORS OF DNA GYRASE FOR THE TREATMENT OF BACTERIAL INFECTIONS” (Vitas Pharma Research Private Limited, priority 2012, published 2017).
In brackets after ≈: the same amount, converted by molar mass. Where two headings read alike, the source gives them in different places.

What was measured:
E. coli Gyrase = target: T1, E. coli Gyrase (Escherichia coli, UniProt P0AES4+P0AES6); test: in vitro Gyrase supercoiling assay (Inspiralis kit); type: biochemical; details: 1 hour at 37° C., read-out: % inhibition of DNA supercoiling activity; for inhibition at 0.1 µM: 0.1 μM compound; for inhibition at 1 µM: 1 μM compound
T1 construct: purchased Inspiralis
Method: To test for target specificity, the activity of compounds was evaluated in an in vitro Gyrase assay using recombinant Gyrase protein as per the instructions of the assay kit (Inspiralis). The assay measures the ability of E. coli Gyrase to convert relaxed plasmid DNA into the supercoiled form. The enzyme is incubated with the substrate (relaxed DNA) in the presence and absence of compounds for 1 hour at 37° C. and the DNA is run on a gel at low voltage for several hours. The gel is then stained with Ethidium bromide and DNA in the different forms is quantified using DNA imaging and quantification software (Image Lab). The activity of the enzyme is proportional to the amount of supercoiled form detected.

[1] = test system: Streptococcus pneumoniae (ATCC 6301); test: MIC by microbroth dilution, Streptococcus pneumoniae ATCC 6301; type: cell-based; details: ATCC6301
Method: (§1) Shown below are the microbiological activities of representative compounds of Formula I of the invention. The compounds were tested by the microbroth dilution method (National committee for Clinical Laboratory Standards, 2011, […]-08) and the Minimum Inhibitory Concentration (MIC) was determined.

[2] = test system: Enterococcus faecalis (ATCC 29212); test: MIC by microbroth dilution, Enterococcus faecalis ATCC 29212; type: cell-based; details: ATCC29212
Method: as §1

[3] = test system: Methicillin resistant Staphylococcus aureus (ATCC 33591); test: MIC by microbroth dilution, MRSA ATCC 33591; type: cell-based
Method: (§2) Shown below are the microbiological activities of representative compounds of Formula I of the invention. The compounds were tested by the microbroth dilution method (National committee for Clinical Laboratory Standards, 2011, M07-08) and the Minimum Inhibitory Concentration (MIC) was determined.
(§3) Analysis of microbiological activity of compounds shown below are the microbiological activities of representative compounds of Formula II of the invention. The compounds were tested by the microbroth dilution method as per the reference in Example 1.

E. coli (ATCC 25922) = test: MIC by microbroth dilution, E. coli ATCC 25922; type: cell-based; details: Escherichia coli
Method: as §2, §3

[4] = test system: Staphylococcus aureus (ATCC 29213); test: MIC by microbroth dilution, Staphylococcus aureus ATCC 29213; type: cell-based; details: ATCC29213
Method: as §1

[5] = test system: Moraxella catarrhalis (ATCC 8176); test: MIC by microbroth dilution, Moraxella catarrhalis ATCC 8176; type: cell-based; details: ATCC8176
Method: as §1

Pseudomonas ATCC 27853 = test: MIC by microbroth dilution, Pseudomonas ATCC 27853; type: cell-based; details: ATCC27853, Formula II compounds, read-out: Minimum Inhibitory Concentration (MIC) Pseudomonas ATCC 27853
Method: as §2, §3

E. faecalis ATCC 51299 = test: MIC by microbroth dilution, E. faecalis ATCC 51299; type: cell-based; details: Enterococcus faecalis, ATCC51299, Formula II compounds, read-out: Minimum Inhibitory Concentration (MIC) E. faecalis ATCC 51299
Method: as §2, §3

Acinetobacter BAA747 = test: MIC by microbroth dilution, Acinetobacter BAA747; type: cell-based; details: Formula II compounds, read-out: Minimum Inhibitory Concentration (MIC) Acinetobacter BAA747
Method: as §2, §3

[6] = target: T2, ciprofloxacin resistant recombinant Gyrase protein (with mutation S83L) (Escherichia coli, UniProt P0AES4+P0AES6, S83L); test: Gyrase supercoiling assay with ciprofloxacin resistant Gyrase (S83L); type: biochemical; details: read-out: Target specificity: % inhibition of supercoiling activity
T2 construct: purchased Inspiralis
Method: The enzyme is incubated with the substrate (relaxed DNA) in the presence and absence of compounds for 1 hour at 37° C. and the DNA is run on a gel at low voltage for several hours. The amount of supercoiled DNA is quantified using DNA imaging and quantification software (Image Lab). The activity of the enzyme is proportional to the amount of supercoiled form detected.

[7] = test system: K. pneumoniae (ATCC 700603); test: MIC by microbroth dilution, K. pneumoniae ATCC 700603; type: cell-based; details: Klebsiella pneumoniae, ATCC700603, Formula I compounds
Method: as §2, §3

[8] = ATCC33591, Formula I compounds, read-out: MIC Methicillin resistant Staphylococcus aureus (ATCC 33591)
[9] = ATCC25922, Formula I compounds, read-out: MIC E. coli (ATCC 25922)
[10] = Formula II compounds, read-out: Minimum Inhibitory Concentration (MIC) MRSA ATCC 33591
[11] = ATCC25922, Formula II compounds, read-out: Minimum Inhibitory Concentration (MIC) E. coli ATCC 25922

MIC (E. faecalis ATCC 51299) [µg/mL]	MIC [3, 10] [µg/mL]	MIC (E. coli (ATCC 25922); [11]) [µg/mL]	MIC [7] [µg/mL]	Compound	inhibition at 0.1 µM (E. coli Gyrase) [%]	inhibition at 1 µM (E. coli Gyrase) [%]	MIC [1] [µg/mL]	MIC [2] [µg/mL]	MIC [3, 8] [µg/mL]	MIC (E. coli (ATCC 25922); [9]) [µg/mL]	MIC [4] [µg/mL]	MIC [5] [µg/mL]	MIC (Pseudomonas ATCC 27853) [µg/mL]	MIC (Acinetobacter BAA747) [µg/mL]	inhibition at 0.1 µM [6] [%]	inhibition at 1 µM [6] [%]
–	–	–	–	COc1ccc2ncc(C#N)c(CCN3CCC(NCc4cc([N+](=O)[O-])ccn4)CC3)c2c1 [VT-03-00079]	16.7	87.6	2 (≈ 4.48 µM)	32 (≈ 71.7 µM)	2 (≈ 4.48 µM)	32 (≈ 71.7 µM)	2 (≈ 4.48 µM)	4 (≈ 8.96 µM)	–	–	–	–
0.25 (≈ 0.572 µM)	0.25 (≈ 0.572 µM)	0.25 to 1 (≈ 0.572 to 2.29 µM)	–	Cc1ccc(CNC2CCN(CCn3c(=O)cnc4ccc(Cl)nc43)CC2)cc1C#N [VT-03-00131]	–	–	–	–	–	–	–	–	16 (≈ 36.6 µM)	0.25 (≈ 0.572 µM)	–	–
–	–	–	> 16	COc1ccc2ncc(C#N)c(CCN3CCC(NCc4ccc([N+](=O)[O-])o4)CC3)c2c1 [VT-03-00051]	–	–	> 4	4 (≈ 9.19 µM)	4 (≈ 9.19 µM)	> 32	2 (≈ 4.59 µM)	2 (≈ 4.59 µM)	–	–	–	–
1 (≈ 2.23 µM)	1 (≈ 2.23 µM)	2 (≈ 4.47 µM)	–	COc1ccc2ncc(=S)n(CCN3CCC(NCc4ccc(C)c(C#N)c4)CC3)c2c1 [VT-03-00132]	–	–	–	–	–	–	–	–	32 (≈ 71.5 µM)	2 (≈ 4.47 µM)	–	–
–	–	–	–	COc1ccc2ncc(C#N)c(CCN3CCC(NCc4ccc([N+](=O)[O-])cc4)CC3)c2c1 [VT-03-00045]	96.5	96.5	0.5 (≈ 1.12 µM)	4 (≈ 8.98 µM)	0.12 (≈ 0.269 µM)	32 (≈ 71.8 µM)	0.06 (≈ 0.135 µM)	2 (≈ 4.49 µM)	–	–	–	–
0.5 (≈ 0.989 µM)	0.06 (≈ 0.119 µM)	2 (≈ 3.96 µM)	–	Cc1ccc(CNC2CCN(CCn3c(=O)cnc4ccc(OC(F)(F)F)cc43)CC2)cc1[N+](=O)[O-] [VT-03-00114]	–	–	–	–	–	–	–	–	–	–	–	–
2 (≈ 4.43 µM)	1 (≈ 2.21 µM)	16 (≈ 35.4 µM)	–	CNC(=O)c1ccc2ncc(=O)n(CCN3CCC(NCc4ccc(C)c(F)c4)CC3)c2c1 [VT-03-00109]	–	–	–	–	–	–	–	–	–	–	–	–
–	–	–	> 16	CCc1ccc(CNC2CCN(CCc3c(C#N)cnc4ccc(OC)cc34)CC2)cc1[N+](=O)[O-] [VT-03-00076]	–	–	0.03 (≈ 0.0633 µM)	0.25 (≈ 0.528 µM)	0.03 (≈ 0.0633 µM)	2 (≈ 4.22 µM)	0.015 (≈ 0.0317 µM)	0.25 (≈ 0.528 µM)	–	–	–	–
–	–	–	> 32	COc1ccc2ncc(=O)n(CCN3CCC(NCc4ccc(F)c([N+](=O)[O-])c4)CC3)c2c1 [VT-03-00056]	–	–	0.25 (≈ 0.549 µM)	8 (≈ 17.6 µM)	0.5 (≈ 1.1 µM)	4 (≈ 8.78 µM)	0.25 (≈ 0.549 µM)	1 (≈ 2.2 µM)	–	–	–	–

Compound	MIC (E. faecalis ATCC 51299) [µg/mL]	MIC [3, 10] [µg/mL]	MIC (E. coli (ATCC 25922); [11]) [µg/mL]	MIC [7] [µg/mL]	inhibition at 0.1 µM (E. coli Gyrase) [%]	inhibition at 1 µM (E. coli Gyrase) [%]	MIC [1] [µg/mL]	MIC [2] [µg/mL]	MIC [3, 8] [µg/mL]	MIC (E. coli (ATCC 25922); [9]) [µg/mL]	MIC [4] [µg/mL]	MIC [5] [µg/mL]	MIC (Pseudomonas ATCC 27853) [µg/mL]	MIC (Acinetobacter BAA747) [µg/mL]	inhibition at 0.1 µM [6] [%]	inhibition at 1 µM [6] [%]
O=c1cnc2ccc(F)cc2n1CCN1CCC(NCc2ccc(Cl)c([N+](=O)[O-])c2)CC1 [VT-03-00116]	0.25 (≈ 0.544 µM)	0.03 (≈ 0.0652 µM)	0.25 (≈ 0.544 µM)	–	–	–	–	–	–	–	–	–	16 (≈ 34.8 µM)	0.25 (≈ 0.544 µM)	96.9	94.3
COc1ccc2ncc(=O)n(CCN3CCC(NCc4ccc(C)c(F)c4)CC3)c2n1 [VT-03-00101]	16 (≈ 37.6 µM)	4 (≈ 9.4 µM)	> 16	–	–	–	–	–	–	–	–	–	–	–	95.9	92.3
COc1ccc2ncc(C#N)c(CCN3CCC(NCc4ccc(F)c([N+](=O)[O-])c4)CC3)c2c1 [VT-03-00048]	–	–	–	> 32	97.5	97.3	0.5 (≈ 1.08 µM)	4 (≈ 8.63 µM)	0.5 (≈ 1.08 µM)	8 (≈ 17.3 µM)	0.12 (≈ 0.259 µM)	1 (≈ 2.16 µM)	–	–	–	–
COc1ccc2ncc(C#N)c(CCN3C4CCC3CC(NCc3ccc5c(c3)NC(=O)CO5)C4)c2c1 (stereo not shown) [VT-03-00030]	–	–	–	> 32	–	–	4 (≈ 8.04 µM)	4 (≈ 8.04 µM)	4 (≈ 8.04 µM)	8 (≈ 16.1 µM)	2 (≈ 4.02 µM)	1 (≈ 2.01 µM)	–	–	–	–
Cc1ccc(CNC2CCN(CCn3c(=O)cnc4ccc(F)cc43)CC2)cc1C#N [VT-03-00117]	0.25 (≈ 0.596 µM)	0.125 (≈ 0.298 µM)	0.5 (≈ 1.19 µM)	–	–	–	–	–	–	–	–	–	16 (≈ 38.1 µM)	0.25 (≈ 0.596 µM)	88.2	97.5
